This is an account of results in paper PMC3368261, “Substituted aminopyrimidine protein kinase B (PknB) inhibitors show activity against Mycobacterium tuberculosis” (Bioorganic & Medicinal Chemistry Letters, 2012).

≈ marks a conversion by molar mass, not a printed value. Where two headings read alike, the source gives them in different places.

In one data set the target is PknB (Mycobacterium tuberculosis, UniProt P9WI81). Description: PknB enzyme inhibition, in vitro phosphorylation of the substrate GarA. In kind it is biochemical.
Sequence of PknB (P9WI81 whole entry): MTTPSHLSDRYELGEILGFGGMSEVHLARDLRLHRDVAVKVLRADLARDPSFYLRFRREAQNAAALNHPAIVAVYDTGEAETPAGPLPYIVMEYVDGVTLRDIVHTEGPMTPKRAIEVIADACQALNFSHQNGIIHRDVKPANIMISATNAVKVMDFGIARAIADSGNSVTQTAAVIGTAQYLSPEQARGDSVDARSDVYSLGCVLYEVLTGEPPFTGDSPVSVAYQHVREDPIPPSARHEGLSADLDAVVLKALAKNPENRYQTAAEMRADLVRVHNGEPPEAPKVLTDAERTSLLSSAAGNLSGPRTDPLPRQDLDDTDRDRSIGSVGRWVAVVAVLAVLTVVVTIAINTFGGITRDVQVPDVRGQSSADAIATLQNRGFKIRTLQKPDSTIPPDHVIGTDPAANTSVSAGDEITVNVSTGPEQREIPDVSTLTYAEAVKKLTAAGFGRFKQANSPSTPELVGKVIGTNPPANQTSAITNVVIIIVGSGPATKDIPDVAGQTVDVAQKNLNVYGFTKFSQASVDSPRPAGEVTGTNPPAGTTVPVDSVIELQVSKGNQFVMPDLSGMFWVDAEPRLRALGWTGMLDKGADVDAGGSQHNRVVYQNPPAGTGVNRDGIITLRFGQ
In another data set the test system is M. tuberculosis. The data set is described as follows: Alamar blue cellular assay against M. tuberculosis (MIC). In kind it is cell-based. To be noted: Mycobacterium tuberculosis.
A further data set is described as follows: physchem. The format is physicochemical.
Data set [1] relates to 76-member human kinase panel. In kind it is biochemical. To be noted: 10 μM inhibitor concentration, 76 kinases.
Where [2] appears, read: assay conditions described in Ref. [8] (Table 5: Ref. [10]), read-out: PknB IC50.

Consider `Cc1cc(Nc2nc(-c3ccncc3)nc3ccccc23)n[nH]1` [Compound 1], for which, on PknB (high throughput screen, GarA phosphorylation, read-out: PknB inhibition (HTS hit)), the IC50 amounted to 1350 nM.
In the case of `c1ccc2c(Nc3cc(C4CC4)[nH]n3)nc(-c3ccncc3)nc2c1` [Compound 5a], the “improvement in PknB binding affinity” value on PknB was “fourfold improvement in binding affinity”. Moreover, on PknB (read-out: PknB IC50), the IC50 worked out at 322 nM.
In the case of `Fc1ccc(-c2nc(Nc3cc[nH]n3)c3ccccc3n2)cc1` [Compound 5b], the IC50 at PknB (setting [2]) came out at 453 nM.
In the case of `Cc1cc(Nc2nc(-c3ccc(F)cc3)nc3ccccc23)n[nH]1` [Compound 5c], at PknB (setting [2]), the IC50 came out at 1160 nM.
For `Fc1ccc(-c2nc(Nc3cc(C4CC4)[nH]n3)c3ccccc3n2)cc1` [Compound 5d], the IC50 on PknB (setting [2]) came to 223 nM.
As for `c1ccc(-c2nc(Nc3cc(C4CC4)[nH]n3)c3ccccc3n2)cc1` [Compound 5e], the IC50 on PknB (setting [2]) amounted to 440 nM.
On to `c1ccc2c(Nc3cc(C4CC4)[nH]n3)nc(NC3CCCCC3)nc2c1` [Compound 5f], for which the IC50 on PknB (read-out: PknB IC50) is 107 nM.
Turning to `c1ccc2c(Nc3cc(C4CC4)[nH]n3)nc(NCC3CC3)nc2c1` [Compound 5g], at PknB (setting [2]), the IC50 was found to be 428 nM.
With `Fc1ccc(-c2nccc(Nc3cc(C4CC4)[nH]n3)n2)cc1` [Compound 8a], the IC50 on PknB (setting [2]) is 375 nM. In the data set with M. tuberculosis, this compound had a minimal inhibitory concentration (MIC) of over 500 µM.
In the same order, the values of `NC(=O)c1cccc(-c2nccc(Nc3cc(C4CC4)[nH]n3)n2)c1` [Compound 8b] are 384 nM and 63 µM (≈ 20.2 µg/mL).
As for `CS(=O)(=O)Nc1cccc(-c2nccc(Nc3cc(C4CC4)[nH]n3)n2)c1` [Compound 8c], the IC50 at PknB (setting [2]) came to 393 nM. In addition, the MIC against M. tuberculosis stood at 31 µM (≈ 11.5 µg/mL).
`CS(=O)(=O)c1cccc(-c2nccc(Nc3cc(C4CC4)[nH]n3)n2)c1` [Compound 8d]: the IC50 on PknB (setting [2]) stood at 86 nM. Besides, in the data set on M. tuberculosis, the MIC was found to be 63 µM (≈ 22.4 µg/mL).
The matching figures for `CS(=O)(=O)NCc1ccc(-c2nccc(Nc3cc(C4CC4)[nH]n3)n2)cc1` [Compound 8e]: 241 nM and 63 µM (≈ 24.2 µg/mL).
For the compound `N#Cc1cccc(-c2nccc(Nc3cc(C4CC4)[nH]n3)n2)c1` [Compound 8f], the IC50 on PknB (read-out: PknB IC50) was determined as 87 nM. In addition, the MIC against M. tuberculosis turned out to be 125 µM (≈ 37.8 µg/mL).
In the case of `c1cncc(-c2nccc(Nc3cc(C4CC4)[nH]n3)n2)c1` [Compound 8g], the IC50 on PknB (setting [2]) is 202 nM. For the same compound, in the data set on M. tuberculosis, the minimum inhibitory concentration (MIC) was determined as 125 µM (≈ 34.8 µg/mL).
As to `c1cc(Nc2cc(C3CC3)[nH]n2)nc(NC2CCCCC2)n1` [Compound 8h], at PknB (setting [2]), the IC50 is 84 nM. In the data set with M. tuberculosis, this compound displayed an MIC of 63 µM (≈ 18.8 µg/mL).
Take `CC(C)CCNc1nccc(Nc2cc(C3CC3)[nH]n2)n1` [Compound 8i]: the IC50 on PknB (setting [2]) was 354 nM. In the data set with M. tuberculosis, this compound gave an MIC of 63 µM (≈ 18 µg/mL).
The matching figures for `c1ccc(CNc2nccc(Nc3cc(C4CC4)[nH]n3)n2)cc1` [Compound 8j]: 715 nM and 125 µM (≈ 38.3 µg/mL).
On to `Fc1cccc(CCNc2nccc(Nc3cc(C4CC4)[nH]n3)n2)c1` [Compound 8k], for which the IC50 on PknB (read-out: PknB IC50) was determined as 74 nM. Also, the minimum inhibitory concentration (MIC) against M. tuberculosis is 63 µM (≈ 21.3 µg/mL).
For the compound `Clc1ccccc1CCNc1nccc(Nc2cc(C3CC3)[nH]n2)n1` [Compound 8l], the IC50 on PknB (setting [2]) came out at 64 nM. Moreover, the minimum inhibitory concentration (MIC) against M. tuberculosis stood at 125 µM (≈ 44.4 µg/mL).
As for `c1cc(Nc2cc(C3CC3)[nH]n2)nc(NCC2CC2)n1` [Compound 8m], at PknB (read-out: PknB IC50), the IC50 was found to be 217 nM. The compound also yielded a minimal inhibitory concentration (MIC) with M. tuberculosis of 250 µM (≈ 67.6 µg/mL).
Consider `c1cc(Nc2cc(C3CC3)[nH]n2)nc(NC2CCCC2)n1` [Compound 8n], for which the IC50 at PknB (setting [2]) came to 115 nM. In the data set with M. tuberculosis, this compound returned a minimal inhibitory concentration (MIC) of 63 µM (≈ 17.9 µg/mL).
In the case of `CN(C)CCNc1cc(Nc2cc(C3CC3)[nH]n2)nc(-c2ccccc2)n1` [Compound 11a], the IC50 on PknB (setting [2]) is 88 nM. This compound displayed a logD in “physchem” of 3.7. In addition, it took 125 µM (≈ 45.4 µg/mL) to inhibit growth in the data set on M. tuberculosis (MIC).
With `CN1CCN(c2cc(Nc3cc(C4CC4)[nH]n3)nc(-c3ccccc3)n2)CC1` [Compound 11b], the IC50 on PknB (setting [2]) turned out to be 121 nM. For the same compound, the pH-dependent lipophilicity (logD) in the data set “physchem” was 3.6. Further, the MIC with M. tuberculosis was 63 µM (≈ 23.7 µg/mL).
On to `CN1CCC(CNc2cc(Nc3cc(C4CC4)[nH]n3)nc(-c3ccccc3)n2)CC1` [Compound 11c], for which the IC50 at PknB (read-out: PknB IC50) turned out to be 55 nM. In the data set “physchem”, the logD was determined as 2.3. Besides, in the data set on M. tuberculosis, the MIC amounted to 31 µM (≈ 12.5 µg/mL).
Regarding `CN1CCC(Nc2cc(Nc3cc(C4CC4)[nH]n3)nc(-c3ccccc3)n2)CC1` [Compound 11d], at PknB (setting [2]), the IC50 was determined as 73 nM. Besides, the pH-dependent lipophilicity (logD) in the data set “physchem” amounted to 2.3. In the data set on M. tuberculosis, this compound came in with a minimum inhibitory concentration (MIC) of 31 µM (≈ 12.1 µg/mL).
In the same order, the values of `CN(C)[C@@H]1CCN(c2cc(Nc3cc(C4CC4)[nH]n3)nc(-c3ccccc3)n2)C1` [Compound 11e] are 53 nM, 3.8 and 16 µM (≈ 6.23 µg/mL).
In the same order, the values of `c1ccc(-c2nc(Nc3cc(C4CC4)[nH]n3)cc(OCCN3CCCC3)n2)cc1` [Compound 11f] are 56 nM, 3.4 and 31 µM (≈ 12.1 µg/mL).
Turning to `CN(C)[C@@H]1CCN(c2cc(Nc3cc(C4CC4)[nH]n3)nc(-c3cccc(C#N)c3)n2)C1` [Compound 15a], the IC50 on PknB (setting [2]) worked out at 56 nM. Moreover, the MIC with M. tuberculosis turned out to be 63 µM (≈ 26.1 µg/mL).
As for `CN(C)CCNc1cc(Nc2cc(C3CC3)[nH]n2)nc(-c2cccc(C#N)c2)n1` [Compound 15b], the “gain in PknB enzyme affinity” value on PknB is given as “approximately twofold”. Further, the IC50 on PknB (setting [2]) is 39 nM. Moreover, the MIC with M. tuberculosis turned out to be 63 µM (≈ 24.5 µg/mL).
`CN1CCC(CNc2cc(Nc3cc(C4CC4)[nH]n3)nc(-c3cccc(C#N)c3)n2)CC1` [Compound 15c]: the “gain in PknB enzyme affinity” value at PknB is on record as “approximately twofold”. At PknB (setting [2]), the IC50 came to 23 nM. In the data set on M. tuberculosis, this compound yielded a minimum inhibitory concentration (MIC) of 31 µM (≈ 13.3 µg/mL).
Take `CN1CCC(CNc2cc(Nc3cc(C4CC4)[nH]n3)nc(-c3cccc(S(C)(=O)=O)c3)n2)CC1` [Compound 15d]: on PknB (read-out: PknB IC50), the IC50 was 40 nM. Besides, the MIC with M. tuberculosis worked out at 63 µM (≈ 30.3 µg/mL).
In the case of `CN(C)[C@@H]1CCN(c2cc(Nc3ccccn3)nc(-c3cccc(C#N)c3)n2)C1` [Compound 16a], the IC50 on PknB (setting [2]) is 1990 nM. In the data set with M. tuberculosis, the MIC is 31 µM (≈ 11.9 µg/mL).
In the same order, the values of `COc1ccnc(Nc2cc(N3CC[C@@H](N(C)C)C3)nc(-c3ccccc3)n2)c1` [Compound 16b] are 1130 nM and 31 µM (≈ 12.1 µg/mL).
As for `CN(C)[C@@H]1CCN(c2cc(Nc3cc(Cl)ccn3)nc(-c3ccccc3)n2)C1` [Compound 16c], the “kinase selectivity against human kinase panel” value in data set [1] is given as “improvement in selectivity relative to 11e”. The IC50 at PknB (setting [2]) is 176 nM. The compound further returned an MIC in the data set with M. tuberculosis of 8 µM (≈ 3.16 µg/mL).
For `CN(C)[C@@H]1CCN(c2cc(Nc3cc(C(F)(F)F)ccn3)nc(-c3cccc(C#N)c3)n2)C1` [Compound 16d], on PknB (read-out: PknB IC50), the IC50 amounted to 40 nM. In the data set with M. tuberculosis, this compound had a minimum inhibitory concentration (MIC) of 16 µM (≈ 7.26 µg/mL).

A word on the MIC: it is the lowest concentration found to suppress growth. A high value points to a less susceptible organism. The term logD denotes the decadic logarithm of the distribution of all forms, ionised or not, between an organic phase and buffer at a given pH. A low value points to lower lipophilicity.
